Test results reported in patent US10584133B2, “Thienopyrimidinone compounds” (BioTheryX, Inc., priority 2018, dated 2020).

Columns and labels:
CK1α = molecular target: T1, CK1α (Homo sapiens, UniProt P48729+Q96SW2); test: CK1α degradation assay (Western blot, MV-4-11 cells); type: cell-based; settings: 6-8 hours
T1 construct: Whole cell extracts were prepared using RIPA buffer; endogenous in cells; host or cells: MV-4-11
Method: (§1) MV-4-11 cells were grown in RPMI 1640 media supplemented with 10% fetal bovine serum, streptomycin and penicillin.
(§2) Cells were cultured at approximately 10^6 cells per mL and incubated in DMSO or the indicated compounds for 6-8 hours. Whole cell extracts were prepared using RIPA buffer according to manufacturer's protocol (Pierce). Briefly, 3×10^6 cells were washed once in PBS, the cell pellets were resuspended in RIPA buffer and allowed to incubate for 15 minutes on ice. Cells debris was removed by centrifugation and the cleared whole cell lysates were transferred to new tubes for further analysis.
(§3) For Western blot analysis, whole cell protein extracts were separated on 4-12% SDS-polyacrylamide gels, transferred to nitrocellulose and probed with the indicated primary antibodies. Membranes were subsequently washed and probed with the appropriate IRDye secondary antibodies (LI-COR). The signal was detected using the Odyssey Imaging System (LI-COR).
(§4) The following antibodies were used in these studies: Anti-eRF3/GSPT1: Abcam, ab126090 (Cambridge, Mass.); Anti-Ikaros: Abcam, ab191394 (Cambridge, Mass.); Anti-CK1α: Abcam, ab108296 (Cambridge, Mass.); Anti-PDE6D: Santa Cruz Biotechnology, sc-166854 (Dallas, Tex.); β-actin (8H10D10) mouse monoclonal antibody: Cell Signaling Technology, #3700 (Danvers, Mass.); IRDye 680RD Goat anti-rabbit antibody: LI-COR, 926-68071 (Lincoln, Nebr.); IRDye 800CW Goat anti-mouse antibody: LI-COR, 926-32210 (Lincoln, Nebr.).

GSPT1 = GSPT1 degradation assay (Western blot, MV-4-11 cells); type: cell-based; settings: 6-8 hours
Method: as §1, §2, §3, §4

PDE6D = molecular target: T2, PDE6D (Homo sapiens, UniProt O43924+Q96SW2); test: PDE6 degradation assay (Western blot, MV-4-11 cells); type: cell-based; settings: 6-8 hours
T2 construct: Whole cell extracts were prepared using RIPA buffer; endogenous in cells; host or cells: MV-4-11
Method: as §1, §2, §3, §4

MV-4-11 cells = test: MV-4-11 cell viability assay (CellTiter-Glo); type: cell-based; settings: 3 days
Method: MV-4-11 cells were cultured in RPMI 1640 media supplemented with 10% fetal bovine serum, streptomycin and penicillin, and were plated in white walled 96-well plates at 2500 cells/well. Cells were incubated in DMSO (control) or the indicated compounds for 3 days at 37° C. and 5% CO2. Following the incubation period, 100 μL of CellTiterGlow (CTG) reagent (CellTiter-Glo® Luminescent Cell Viability Assay, Promega (Madison, Wis.)) was added to each well. Following a 10 minutes incubation with shaking, luminescence was measured using the EnVision Multimode plate reader.

IKAROS = molecular target: T3, IKAROS (Homo sapiens, UniProt Q13422+Q96SW2); test: IKAROS degradation assay (Western blot, MV-4-11 cells); type: cell-based; settings: 6-8 hours
T3 construct: endogenous in cells; host or cells: MV-4-11
Method: as §1, §2, §3, §4

Helios = molecular target: T4, Helios (Homo sapiens, UniProt Q96SW2+Q9UKS7); test: Helios assay (Western blot degradation, MV-4-11 cells); type: cell-based; settings: 6-8 hours
T4 construct: Whole cell extracts were prepared using RIPA buffer; endogenous in cells; host or cells: MV-4-11
Method: as §1, §2, §3, §4

IL-2 = IL-2 in anti-CD3 stimulated PBMCs (Mesoscale); type: cell-based, human; settings: fold difference from DMSO control, 24 h
Method: For the IL-2 analysis, 96 well plates were precoated with 1 μg/mL anti-human CD3 antibody (OKT3, eBioscience Inc., San Diego, Calif.). After washing with PBS, Compound 12 was added (50 μL/well) followed by PBMCs diluted at 3-4 million cells/mL (150 μL/well). Plates were incubated for 24 h and the supernatants collected for Mesoscale IL-2 analysis. IL-2 activity is measured as fold difference from the DMSO control.

IL-6 = IL-6 in LPS-induced PBMCs / CD14+ monocytes (Meso Scale); type: cell-based; settings: LPS 100 ng/mL, 18-24 h
Method: (§5) Either frozen primary blood mononuclear cells (PBMCs) or frozen CD14+ mobilized peripheral blood monocytes were purchased from AllCells (PB003F, Normal Peripheral Blood MNC (Alameda, Calif.)). Cells were quick thawed, washed 1-time with RPMI-1640 (10% FBS/1% Pen-Strep) and plated in 96 well plates at 200,000 cells per well. Cells were pretreated with DMSO only or Compound 12 for 1 h and then induced with 100 ng/mL lipopolysaccharide (LPS) for 18-24 h. The supernatant was analyzed for IL-1β, IL-6, and TNFα, using Meso Scale assay according to manufacturer's protocol. The negative control wells were treated with DMSO.

IL-1β = IL-1β in LPS-induced PBMCs / CD14+ monocytes (Meso Scale); type: cell-based; settings: LPS 100 ng/mL, 18-24 h
Method: as §5

TNFα = TNFα in LPS-induced PBMCs / CD14+ monocytes (Meso Scale); type: cell-based; settings: LPS 100 ng/mL, 18-24 h
Method: as §5

T2 sequence (O43924 whole entry): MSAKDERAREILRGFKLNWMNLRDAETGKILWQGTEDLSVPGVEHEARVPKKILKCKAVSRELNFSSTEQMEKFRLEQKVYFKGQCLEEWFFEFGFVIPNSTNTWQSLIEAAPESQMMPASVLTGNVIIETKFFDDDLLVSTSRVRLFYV
T2 sequence (Q96SW2 whole entry): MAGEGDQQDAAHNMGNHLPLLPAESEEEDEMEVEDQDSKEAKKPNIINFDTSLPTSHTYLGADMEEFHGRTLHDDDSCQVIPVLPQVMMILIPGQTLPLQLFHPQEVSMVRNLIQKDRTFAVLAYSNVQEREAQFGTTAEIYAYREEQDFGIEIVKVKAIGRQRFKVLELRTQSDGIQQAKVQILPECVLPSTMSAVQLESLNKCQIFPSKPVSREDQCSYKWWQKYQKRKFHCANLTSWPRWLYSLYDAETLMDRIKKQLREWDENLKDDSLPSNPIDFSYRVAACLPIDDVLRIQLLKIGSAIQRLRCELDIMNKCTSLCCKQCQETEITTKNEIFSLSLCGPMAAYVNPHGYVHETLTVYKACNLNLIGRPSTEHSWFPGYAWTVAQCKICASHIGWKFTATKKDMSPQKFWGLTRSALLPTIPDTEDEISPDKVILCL
T2 sequence (Q16531 whole entry partner): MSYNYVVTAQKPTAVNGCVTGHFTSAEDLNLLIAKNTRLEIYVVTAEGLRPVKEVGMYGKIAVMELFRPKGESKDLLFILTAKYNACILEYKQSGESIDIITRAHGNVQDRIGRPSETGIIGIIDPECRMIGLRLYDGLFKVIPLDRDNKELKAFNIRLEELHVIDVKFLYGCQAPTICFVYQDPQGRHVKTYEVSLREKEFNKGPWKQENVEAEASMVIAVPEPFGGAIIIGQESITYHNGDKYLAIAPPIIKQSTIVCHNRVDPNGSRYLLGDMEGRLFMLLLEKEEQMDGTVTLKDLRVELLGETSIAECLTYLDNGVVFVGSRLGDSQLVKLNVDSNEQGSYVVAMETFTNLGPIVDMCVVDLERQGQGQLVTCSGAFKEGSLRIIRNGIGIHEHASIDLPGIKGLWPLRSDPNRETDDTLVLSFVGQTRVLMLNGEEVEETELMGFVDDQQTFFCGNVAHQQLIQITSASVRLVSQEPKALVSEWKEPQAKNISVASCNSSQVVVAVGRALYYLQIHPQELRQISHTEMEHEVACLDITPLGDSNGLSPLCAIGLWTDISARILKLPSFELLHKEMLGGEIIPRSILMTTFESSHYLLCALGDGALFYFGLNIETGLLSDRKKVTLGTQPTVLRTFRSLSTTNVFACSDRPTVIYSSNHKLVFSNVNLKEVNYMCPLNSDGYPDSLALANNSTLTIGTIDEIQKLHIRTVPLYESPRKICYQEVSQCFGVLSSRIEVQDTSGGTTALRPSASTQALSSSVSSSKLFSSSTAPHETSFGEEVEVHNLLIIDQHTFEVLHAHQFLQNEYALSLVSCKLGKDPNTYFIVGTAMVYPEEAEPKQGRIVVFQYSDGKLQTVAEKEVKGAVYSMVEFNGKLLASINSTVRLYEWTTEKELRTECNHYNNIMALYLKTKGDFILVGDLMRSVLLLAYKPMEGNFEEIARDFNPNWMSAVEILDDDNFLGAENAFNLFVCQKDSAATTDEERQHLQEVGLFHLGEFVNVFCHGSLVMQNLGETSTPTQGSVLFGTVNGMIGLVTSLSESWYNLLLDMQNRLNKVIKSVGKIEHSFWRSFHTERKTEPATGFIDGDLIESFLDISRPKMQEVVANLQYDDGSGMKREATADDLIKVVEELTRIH
T3 sequence (Q13422 whole entry): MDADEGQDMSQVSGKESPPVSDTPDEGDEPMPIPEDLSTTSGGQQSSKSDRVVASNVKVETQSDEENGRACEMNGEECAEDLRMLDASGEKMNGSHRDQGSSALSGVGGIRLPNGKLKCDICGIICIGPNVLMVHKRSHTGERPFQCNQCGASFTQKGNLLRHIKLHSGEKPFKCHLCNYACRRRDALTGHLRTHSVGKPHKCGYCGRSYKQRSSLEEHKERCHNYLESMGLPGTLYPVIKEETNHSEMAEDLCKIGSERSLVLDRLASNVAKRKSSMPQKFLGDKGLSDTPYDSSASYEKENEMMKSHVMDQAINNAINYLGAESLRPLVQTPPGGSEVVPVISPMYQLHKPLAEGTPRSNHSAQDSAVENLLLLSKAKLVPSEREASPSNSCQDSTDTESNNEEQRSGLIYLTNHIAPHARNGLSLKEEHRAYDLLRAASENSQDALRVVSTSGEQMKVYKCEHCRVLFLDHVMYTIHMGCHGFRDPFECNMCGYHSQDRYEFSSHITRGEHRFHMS
T3 sequence (Q96SW2 whole entry): as the sequence (Q96SW2 whole entry) above
T3 sequence (Q16531 whole entry partner): as the sequence (Q16531 whole entry partner) above
T1 sequence (P48729 whole entry): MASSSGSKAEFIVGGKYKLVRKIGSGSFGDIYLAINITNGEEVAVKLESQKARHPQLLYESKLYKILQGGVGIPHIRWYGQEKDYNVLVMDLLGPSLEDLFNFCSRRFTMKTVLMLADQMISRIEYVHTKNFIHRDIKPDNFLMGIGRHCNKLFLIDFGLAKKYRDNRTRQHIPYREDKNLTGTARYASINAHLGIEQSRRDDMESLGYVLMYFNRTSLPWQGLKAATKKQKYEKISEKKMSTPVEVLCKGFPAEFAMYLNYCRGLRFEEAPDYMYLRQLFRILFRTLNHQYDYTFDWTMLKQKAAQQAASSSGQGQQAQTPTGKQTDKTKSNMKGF
T1 sequence (Q96SW2 whole entry): as the sequence (Q96SW2 whole entry) above
T1 sequence (Q16531 whole entry partner): as the sequence (Q16531 whole entry partner) above
T4 sequence (Q9UKS7 whole entry): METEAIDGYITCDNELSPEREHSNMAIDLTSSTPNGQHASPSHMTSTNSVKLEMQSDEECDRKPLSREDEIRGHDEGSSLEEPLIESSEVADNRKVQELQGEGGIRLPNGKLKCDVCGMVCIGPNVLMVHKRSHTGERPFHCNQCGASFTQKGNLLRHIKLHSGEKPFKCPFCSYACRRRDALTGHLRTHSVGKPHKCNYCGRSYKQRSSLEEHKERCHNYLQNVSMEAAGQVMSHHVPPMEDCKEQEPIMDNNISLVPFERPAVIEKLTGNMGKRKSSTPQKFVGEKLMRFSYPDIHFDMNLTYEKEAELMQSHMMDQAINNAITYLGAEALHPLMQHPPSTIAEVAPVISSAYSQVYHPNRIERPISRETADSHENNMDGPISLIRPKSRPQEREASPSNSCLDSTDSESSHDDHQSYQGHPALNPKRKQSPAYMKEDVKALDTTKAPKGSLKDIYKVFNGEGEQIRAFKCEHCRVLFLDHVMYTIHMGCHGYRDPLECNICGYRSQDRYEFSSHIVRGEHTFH
T4 sequence (Q96SW2 whole entry): as the sequence (Q96SW2 whole entry) above
T4 sequence (Q16531 whole entry partner): as the sequence (Q16531 whole entry partner) above

Structure (SMILES) | CK1α % Degradation at 15 μM (CK1α) [%] | CK1α % Degradation at 30 μM (CK1α) [%] | PDE6D % Degradation at 15 μM (PDE6D) [%] | PDE6D % Degradation at 30 μM (PDE6D) [%] | IKAROS % Degradation at 15 μM (IKAROS) [%] | IKAROS % Degradation at 30 μM (IKAROS) [%] | MV-4-11 Cell Viability % DMSO at 15 μM (MV-4-11 cells) [% DMSO] | MV-4-11 Cell Viability % DMSO at 30 μM (MV-4-11 cells) [% DMSO] | also measured
Cc1nc2ccsc2c(=O)n1C1CCC(=O)NC1=O (stereo not drawn) [Compound 1, 3-(2-methyl-4-oxothieno[3,2-d]pyrimidin-3(4H)-yl)piperidine-2,6-dione] |  |  |  |  |  |  |  |  | GSPT1 % Degradation at 15 μM (GSPT1): 23%; GSPT1 % Degradation at 30 μM (GSPT1): 0%
Cc1nc2cc(Br)sc2c(=O)n1C1CCC(=O)NC1=O (stereo not drawn) [Compound 4, 3-(6-bromo-2-methyl-4-oxothieno[3,2-d]pyrimidin-3(4H)-yl)piperidine-2,6-dione] |  |  | 49 | 75 |  |  | 100 | 97 | 
Cc1nc2c(N)csc2c(=O)n1C1CCC(=O)NC1=O (stereo not drawn) [Compound 9, 3-(7-amino-2-methyl-4-oxothieno[3,2-d]pyrimidin-3(4H)-yl)piperidine-2,6-dione] | 24 | 12 |  |  |  |  |  |  | 
Cc1ccc(NC(=O)NCc2cc3nc(C)n(C4CCC(=O)NC4=O)c(=O)c3s2)cc1Cl (stereo not drawn) [Compound 13, 1-(3-chloro-4-methylphenyl)-3-((3-(2,6-dioxopiperidin-3-yl)-2-methyl-4-oxo-3,4-dihydrothieno[3,2-d]pyrimidin-6-yl)methyl)urea] | 31 | 35 | 4 | 9 | 65 | 55 | 2 | 0.73 | Helios % Degradation at 15 μM (Helios): 50%; Helios % Degradation at 30 μM (Helios): 21%; GSPT1 % Degradation at 15 μM (GSPT1): 87%; GSPT1 % Degradation at 30 μM (GSPT1): 87%
Cc1sc2nc(C)n(C3CCC(=O)NC3=O)c(=O)c2c1N (stereo not drawn) [Compound 7, 3-(5-amino-2,6-dimethyl-4-oxothieno[2,3-d]pyrimidin-3(4H)-yl)piperidine-2,6-dione] |  |  |  |  |  |  | 97 | 96 | 
Cc1nc2c(CN)scc2c(=O)n1C1CCC(=O)NC1=O.O=C(O)C(F)(F)F (stereo not drawn) [Compound 11, 3-(7-(aminomethyl)-2-methyl-4-oxothieno[3,4-d]pyrimidin-3(4H)-yl)piperidine-2,6-dione 2,2,2-trifluoroacetate] | 17 | 0 | 30 | 41 |  |  | 94 | 78 | 
Cc1ccc(NC(=O)NCc2scc3c(=O)n(C4CCC(=O)NC4=O)c(C)nc23)cc1Cl (stereo not drawn) [Compound 12, 1-(3-chloro-4-methylphenyl)-3-((3-(2,6-dioxopiperidin-3-yl)-2-methyl-4-oxo-3,4-dihydrothieno[3,4-d]pyrimidin-7-yl)methyl)urea] | 16 | 45 | 0 | 21 | 28 | 60 | 0 | 0 | IL-2 Fold Change (IL-2; 1 μM): 3.6 Fold Change; IL-2 Fold Change (IL-2; 10 μM): 3.1 Fold Change; Helios % Degradation at 15 μM (Helios): 49%; Helios % Degradation at 30 μM (Helios): 69%; inhibition at 1 µM (IL-6; 1 μM): 17%; inhibition at 10 µM (IL-6; 10 μM): 53%; inhibition at 1 µM (IL-1β; 1 μM): 80%; inhibition at 10 µM (IL-1β; 10 μM): 92%; inhibition at 1 µM (TNFα; 1 μM): 79%; inhibition at 10 µM (TNFα; 10 μM): 91%; GSPT1 % Degradation at 15 μM (GSPT1): 96%; GSPT1 % Degradation at 30 μM (GSPT1): 97%
Cc1nc2scc(N)c2c(=O)n1C1CCC(=O)NC1=O (stereo not drawn) [Compound 10, 3-(5-amino-2-methyl-4-oxothieno[2,3-d]pyrimidin-3(4H)-yl)piperidine-2,6-dione] |  |  |  |  | 49 | 53 |  |  | Helios % Degradation at 15 μM (Helios): 0%; Helios % Degradation at 30 μM (Helios): 16%
Cc1cc2c(=O)n(C3CCC(=O)NC3=O)c(C)nc2s1 (stereo not drawn) [Compound 6, 3-(2,6-dimethyl-4-oxothieno[2,3-d]pyrimidin-3(4H)-yl)piperidine-2,6-dione] |  |  |  |  |  |  | 89 | 91 | 

More lines, main results first:

CK1α % Degradation at 15 μM (CK1α) [%] | CK1α % Degradation at 30 μM (CK1α) [%] | PDE6D % Degradation at 15 μM (PDE6D) [%] | PDE6D % Degradation at 30 μM (PDE6D) [%] | IKAROS % Degradation at 15 μM (IKAROS) [%] | IKAROS % Degradation at 30 μM (IKAROS) [%] | Structure (SMILES) | MV-4-11 Cell Viability % DMSO at 15 μM (MV-4-11 cells) [% DMSO] | MV-4-11 Cell Viability % DMSO at 30 μM (MV-4-11 cells) [% DMSO] | also measured
8 | 0 |  |  |  |  | Cc1nc2sc(Br)cc2c(=O)n1C1CCC(=O)NC1=O (stereo not drawn) [Compound 8, 3-(6-bromo-2-methyl-4-oxothieno[2,3-d]pyrimidin-3(4H)-yl)piperidine-2,6-dione] |  |  | 
 |  | 0 | 24 | 0 | 7 | Cc1nc2cscc2c(=O)n1C1CCC(=O)NC1=O (stereo not drawn) [Compound 2, 3-(2-methyl-4-oxothieno[3,4-d]pyrimidin-3(4H)-yl)piperidine-2,6-dione] |  |  | 
 |  | 0 | 10 |  |  | Cc1nc2sccc2c(=O)n1C1CCC(=O)NC1=O (stereo not drawn) [Compound 3, 3-(2-methyl-4-oxothieno[2,3-d]pyrimidin-3(4H)-yl)piperidine-2,6-dione] | 97 | 94 | 
 |  | 0 | 15 |  |  | Cc1nc2scc(Br)c2c(=O)n1C1CCC(=O)NC1=O (stereo not drawn) [Compound 5, 3-(5-bromo-2-methyl-4-oxothieno[2,3-d]pyrimidin-3(4H)-yl)piperidine-2,6-dione] |  |  | 
